ChEMBL document CHEMBL1145379 (J Med Chem, 2007)

Experiments:
[1] = tested on: Plasma; test: Anticoagulant potency in human plasma assessed as concentration for doubling of prothrombin time; format: functional
[2] = molecular target: Coagulation factor X (Homo sapiens, UniProt P00742); test: Inhibition of human F10a; details: read-out: Ki app
[3] = molecular target: Prothrombin (Homo sapiens, UniProt P00734); test: Inhibition of human F2a; details: read-out: Ki app
[4] = Clearance in Beagle dog at 1 mg/kg, iv; format: ADME, organism-based, Canis lupus familiaris; design: dose 1 mg/kg, route intravenous; details: in vivo
[5] = Volume of distribution at steady state in Beagle dog at 1 mg/kg, iv; format: ADME, organism-based, Canis lupus familiaris; design: dose 1 mg/kg, route intravenous; details: in vivo, read-out: Vss
[6] = Half life in Beagle dog at 1 mg/kg, iv; format: ADME, organism-based, Canis lupus familiaris; design: dose 1 mg/kg, route intravenous; details: in vivo
[7] = Cmax in Beagle dog at 10 mg/kg, po; format: ADME, organism-based, Canis lupus familiaris; design: dose 10 mg/kg, route oral; details: in vivo
[8] = Bioavailability in Beagle dog at 10 mg/kg, po normalized to 1 mg/kg, iv; format: ADME, organism-based, Canis lupus familiaris; details: in vivo
[9] = tested on: Plasma; test: Anticoagulant potency in dog plasma assessed as concentration for doubling of prothrombin time; format: functional, Canis lupus familiaris
[10] = tested on: Plasma; test: Anticoagulant potency in rat plasma assessed as concentration for doubling of prothrombin time; format: functional
[11] = Inhibition of dog F10a; design: species or system Canis lupus familiaris
[12] = molecular target: Coagulation factor X (Rattus norvegicus, UniProt Q63207); test: Inhibition of rat F10a
Sequence of Coagulation factor X (Rattus norvegicus, UniProt Q63207) (Q63207 41-180 limits assumed): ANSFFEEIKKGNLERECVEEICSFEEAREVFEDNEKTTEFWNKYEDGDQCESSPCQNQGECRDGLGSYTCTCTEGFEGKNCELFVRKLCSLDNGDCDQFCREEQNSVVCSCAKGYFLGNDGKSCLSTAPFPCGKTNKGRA
Sequence of Coagulation factor X (Rattus norvegicus, UniProt Q63207) (Q63207 232-482 limits assumed): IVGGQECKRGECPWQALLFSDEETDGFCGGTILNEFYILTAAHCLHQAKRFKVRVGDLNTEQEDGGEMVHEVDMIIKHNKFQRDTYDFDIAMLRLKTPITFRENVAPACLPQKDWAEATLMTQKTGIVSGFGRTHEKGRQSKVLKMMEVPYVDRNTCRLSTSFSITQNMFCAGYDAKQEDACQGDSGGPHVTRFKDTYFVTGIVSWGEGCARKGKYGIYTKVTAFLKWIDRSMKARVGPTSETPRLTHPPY

[13] = molecular target: Trypsin (Homo sapiens, UniProt P07477+P07478+P35030); test: Inhibition of human trypsin; format: protein assay
[14] = molecular target: Tissue-type plasminogen activator (Homo sapiens, UniProt P00750); test: Inhibition of human tPA
Sequence of Tissue-type plasminogen activator (P00750 whole entry): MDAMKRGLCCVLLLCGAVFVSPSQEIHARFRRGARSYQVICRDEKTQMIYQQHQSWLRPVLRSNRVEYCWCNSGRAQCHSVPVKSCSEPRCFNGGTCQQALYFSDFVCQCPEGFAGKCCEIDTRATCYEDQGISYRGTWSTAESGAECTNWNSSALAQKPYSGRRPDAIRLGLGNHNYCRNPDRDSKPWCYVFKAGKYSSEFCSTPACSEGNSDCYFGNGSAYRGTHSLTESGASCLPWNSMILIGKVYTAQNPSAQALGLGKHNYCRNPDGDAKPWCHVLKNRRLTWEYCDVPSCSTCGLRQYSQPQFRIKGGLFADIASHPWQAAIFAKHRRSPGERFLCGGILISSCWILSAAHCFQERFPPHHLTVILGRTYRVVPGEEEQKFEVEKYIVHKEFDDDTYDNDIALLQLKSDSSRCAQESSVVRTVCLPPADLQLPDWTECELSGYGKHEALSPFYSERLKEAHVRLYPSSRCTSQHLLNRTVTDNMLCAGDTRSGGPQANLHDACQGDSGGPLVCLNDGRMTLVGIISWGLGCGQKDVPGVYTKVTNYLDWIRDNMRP

[15] = molecular target: Plasma kallikrein (Homo sapiens, UniProt P03952); test: Inhibition of human kallikrein
Sequence of Plasma kallikrein (P03952 20-390 limits assumed): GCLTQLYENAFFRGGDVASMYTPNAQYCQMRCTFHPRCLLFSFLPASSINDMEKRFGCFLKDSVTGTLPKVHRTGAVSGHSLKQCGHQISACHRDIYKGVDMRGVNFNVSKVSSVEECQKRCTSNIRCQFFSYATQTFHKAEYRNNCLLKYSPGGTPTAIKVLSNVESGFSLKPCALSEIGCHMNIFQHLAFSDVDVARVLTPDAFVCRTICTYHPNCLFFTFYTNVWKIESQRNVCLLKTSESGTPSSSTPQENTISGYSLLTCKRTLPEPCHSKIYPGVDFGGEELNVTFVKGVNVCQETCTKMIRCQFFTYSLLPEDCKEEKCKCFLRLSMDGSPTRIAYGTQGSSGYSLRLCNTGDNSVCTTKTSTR
Sequence of Plasma kallikrein (P03952 391-638 limits assumed): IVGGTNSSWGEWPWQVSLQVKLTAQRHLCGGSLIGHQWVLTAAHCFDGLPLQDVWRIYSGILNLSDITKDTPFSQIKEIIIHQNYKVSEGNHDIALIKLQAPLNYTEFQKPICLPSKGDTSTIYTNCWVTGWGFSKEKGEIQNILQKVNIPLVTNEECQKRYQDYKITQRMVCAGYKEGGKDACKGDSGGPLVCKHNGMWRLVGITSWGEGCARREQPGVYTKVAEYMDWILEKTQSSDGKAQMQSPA

[16] = molecular target: Coagulation factor XI (Homo sapiens, UniProt P03951); test: Inhibition of human F11a
Sequence of Coagulation factor XI (P03951 19-387 limits assumed): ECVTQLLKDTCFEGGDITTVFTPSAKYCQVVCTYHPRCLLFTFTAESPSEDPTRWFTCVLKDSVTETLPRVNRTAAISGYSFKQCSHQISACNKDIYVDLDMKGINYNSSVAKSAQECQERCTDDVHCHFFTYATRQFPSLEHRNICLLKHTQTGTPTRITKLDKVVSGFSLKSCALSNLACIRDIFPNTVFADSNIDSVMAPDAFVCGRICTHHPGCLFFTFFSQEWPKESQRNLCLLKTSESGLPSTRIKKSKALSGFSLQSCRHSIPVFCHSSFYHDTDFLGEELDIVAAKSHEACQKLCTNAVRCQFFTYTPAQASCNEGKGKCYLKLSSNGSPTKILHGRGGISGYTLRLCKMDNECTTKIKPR
Sequence of Coagulation factor XI (P03951 388-625 limits assumed): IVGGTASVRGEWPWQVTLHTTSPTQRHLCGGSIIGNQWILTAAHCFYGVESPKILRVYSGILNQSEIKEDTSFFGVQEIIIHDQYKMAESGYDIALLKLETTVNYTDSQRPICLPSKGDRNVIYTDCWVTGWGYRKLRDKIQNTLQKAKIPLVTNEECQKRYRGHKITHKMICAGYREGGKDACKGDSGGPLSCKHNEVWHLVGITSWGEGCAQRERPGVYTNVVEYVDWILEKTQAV

[17] = molecular target: Urokinase-type plasminogen activator (Homo sapiens, UniProt P00749); test: Inhibition of human urokinase
[18] = molecular target: Plasminogen (Homo sapiens, UniProt P00747); test: Inhibition of human plasmin
Sequence of Plasminogen (P00747 97-580 limits assumed): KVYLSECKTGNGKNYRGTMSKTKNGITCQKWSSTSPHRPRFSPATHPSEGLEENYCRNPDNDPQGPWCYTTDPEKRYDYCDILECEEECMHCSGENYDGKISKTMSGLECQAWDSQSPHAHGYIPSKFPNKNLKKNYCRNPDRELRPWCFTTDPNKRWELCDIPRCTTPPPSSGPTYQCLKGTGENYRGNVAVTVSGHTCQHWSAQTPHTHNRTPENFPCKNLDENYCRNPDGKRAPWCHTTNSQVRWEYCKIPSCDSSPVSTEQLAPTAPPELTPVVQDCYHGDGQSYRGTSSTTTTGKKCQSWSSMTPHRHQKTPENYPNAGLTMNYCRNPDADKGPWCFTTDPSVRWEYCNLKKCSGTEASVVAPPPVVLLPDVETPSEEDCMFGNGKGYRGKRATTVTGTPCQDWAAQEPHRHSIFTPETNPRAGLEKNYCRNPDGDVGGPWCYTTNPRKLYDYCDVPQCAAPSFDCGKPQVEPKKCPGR
Sequence of Plasminogen (P00747 581-810 limits assumed): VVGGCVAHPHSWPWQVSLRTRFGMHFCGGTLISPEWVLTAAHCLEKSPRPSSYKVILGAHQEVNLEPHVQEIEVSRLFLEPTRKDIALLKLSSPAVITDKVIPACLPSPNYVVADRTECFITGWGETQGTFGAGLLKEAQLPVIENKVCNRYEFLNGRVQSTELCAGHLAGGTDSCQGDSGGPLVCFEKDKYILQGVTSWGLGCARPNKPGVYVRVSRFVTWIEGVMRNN

[19] = Inhibition of human chymotrypsin
[20] = molecular target: T1, Cathepsin G (Homo sapiens, UniProt P08311); test: Inhibition of human cathepsin G
T1 sequence (P08311 whole entry): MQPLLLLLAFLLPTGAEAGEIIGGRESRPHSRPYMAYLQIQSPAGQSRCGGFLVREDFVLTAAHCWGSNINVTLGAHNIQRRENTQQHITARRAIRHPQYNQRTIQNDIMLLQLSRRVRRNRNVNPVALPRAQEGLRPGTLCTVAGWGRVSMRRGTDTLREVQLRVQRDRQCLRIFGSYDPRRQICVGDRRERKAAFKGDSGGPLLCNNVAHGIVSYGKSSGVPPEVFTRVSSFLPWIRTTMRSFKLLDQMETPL

[21] = molecular target: T2, Neutrophil elastase (Homo sapiens, UniProt P08246); test: Inhibition of human neutrophil elastase
T2 sequence (P08246 whole entry): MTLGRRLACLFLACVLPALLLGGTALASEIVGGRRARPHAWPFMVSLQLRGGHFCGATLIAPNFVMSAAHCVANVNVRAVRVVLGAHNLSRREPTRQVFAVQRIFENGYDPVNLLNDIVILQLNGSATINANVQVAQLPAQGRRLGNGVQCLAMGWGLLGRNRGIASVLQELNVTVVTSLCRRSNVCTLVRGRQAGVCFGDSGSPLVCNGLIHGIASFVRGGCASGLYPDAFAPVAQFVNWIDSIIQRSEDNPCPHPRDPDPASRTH

[22] = tested on: Rattus norvegicus; test: Inhibition of thrombosis in iv dosed Wistar rat vena cava stasis model; format: functional, organism-based
[23] = tested on: Canis familiaris; test: Ex vivo anticoagulant potency in dog assessed as prolongation of prothrombin time at 10 mg/kg, po after 1 hr; format: functional, Canis lupus familiaris
[24] = tested on: Canis familiaris; test: Ex vivo anticoagulant potency in dog assessed as prolongation of prothrombin time at 10 mg/kg, po after 2 hrs; format: functional, Canis lupus familiaris
[25] = tested on: Canis familiaris; test: Ex vivo anticoagulant potency in dog assessed as prolongation of prothrombin time at 10 mg/kg, po after 6 hrs; format: functional, Canis lupus familiaris

Sequence of Coagulation factor X (Homo sapiens, UniProt P00742) (P00742 41-179 limits assumed): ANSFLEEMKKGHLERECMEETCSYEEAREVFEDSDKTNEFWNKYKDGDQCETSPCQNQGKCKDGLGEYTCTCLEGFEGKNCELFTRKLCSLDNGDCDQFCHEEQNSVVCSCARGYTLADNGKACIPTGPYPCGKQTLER
Sequence of Coagulation factor X (Homo sapiens, UniProt P00742) (P00742 235-488 limits assumed): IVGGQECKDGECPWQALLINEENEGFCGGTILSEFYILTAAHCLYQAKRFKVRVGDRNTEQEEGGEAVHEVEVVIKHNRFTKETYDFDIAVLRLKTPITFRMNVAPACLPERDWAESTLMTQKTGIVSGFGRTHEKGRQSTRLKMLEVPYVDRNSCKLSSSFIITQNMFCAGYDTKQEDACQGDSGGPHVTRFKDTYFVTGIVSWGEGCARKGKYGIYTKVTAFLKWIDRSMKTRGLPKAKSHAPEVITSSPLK

SMILES	Activity [1]	Ki [3]	clearance [4]	Vd [5]	half-life [6]	Cmax [7]	bioavailability [8]	Activity [9]	Activity [10]	Ki [11]	Ki [12]	Ki [13]	Ki [14]	Ki [15]	Ki [16]	Ki [17]	Ki [18]	Ki [19]	Ki [20]	Ki [21]	further results
CNCc1csc(C(=O)Nc2c(OC)cc(Cl)cc2C(=O)Nc2ccc(Cl)cn2)c1Cl	1.6 µM	3700 nM	1.6 mL/min/kg	1.4 L/kg	630 min	5100 ng/mL	75%	4.35 µM	7.3 µM	1.7 nM	2.5 nM	> 10 µM	> 5 µM	1000 nM	> 10 µM	> 5 µM	> 10 µM	> 10 µM	> 10 µM	10 µM	Ki [2]: 0.21 nM; Activity [22]: Dose-dependent effect
COc1cc(Cl)cc(C(=O)Nc2ccc(Cl)cn2)c1NC(=O)c1scc(CN(C)C2=NCCO2)c1Cl	0.36 µM	90 nM	5.8 mL/min/kg	1.6 L/kg	192 min	1900 ng/mL	56%	0.35 µM	93 µM	0.15 nM	0.29 nM	> 10 µM	> 5 µM	37 nM	> 10 µM	> 5 µM	> 10 µM	> 10 µM	> 10 µM	> 10 µM	Ki [2]: 0.007 nM; Fold change [23]: 3.2; Fold change [24]: 5; Fold change [25]: 4
CNc1nccn1Cc1csc(C(=O)Nc2c(OC)cc(Cl)cc2C(=O)Nc2ccc(Cl)cn2)c1Cl	1.2 µM	990 nM	4.4 mL/min/kg	1 L/kg	204 min	3700 ng/mL	98%	4.2 µM	2.56 µM	0.31 nM	0.06 nM	> 5 µM	> 5 µM	45 nM	> 5 µM	> 5 µM	> 5 µM	> 5 µM	> 5 µM	> 5 µM	Activity [22]: Dose-dependent effect
